Patent publication US4743594A, “Antibiotic, antitumor compounds and their use” (priority 1984, dated 1988)
Values after ≈ are worked out from the molar mass of the structure shown.

How the values were obtained:
gram-negative bacteria = assay: antibacterial activity against gram-negative bacteria; type: cell-based
Method: (§1) Antibiotics AT 2433 A1, AT 2433 A2, and AT 2433 B1 and AT 2433 B2 were tested in-vitro to determine anti-bacterial activity against a variety of gram-positive and gram-negative organisms
(§2) The in-vitro antibacterial activity tests were performed via conventional agar dilution methods in Muell-Hintom agar (MHA) at pH 7.4.

gram-positive bacteria = assay: antibacterial activity against gram-positive bacteria; type: cell-based
Method: as §1, §2

P-388 leukemia = assay: in-vivo antitumor activity against transplanted mouse P-388 leukemia (NCI test); conditions: for MST (% T/C): >125 = significant antitumor activity; for in-vivo antitumor activity: P-388 leukemia in mice
Method: (§3) Anti-tumor activity was determined by the standard National Cancer Institute test which was published in Cancer Chemothr. Rep. 3:1-103, 1972.
(§4) In the test, 10^6 cells (a lethal dose) per mouse of P-388 leukemia are administered interperitoneally on day 0. The test compounds are serially diluted (1:2, 1:4, 1:8, etc.) and each dilution is administered interperitoneally to the mice on days 1, 4 and 7.
(§5) ^1 Tumor inoculum: 10^6 ascites cells, ip
(§6) ^2 Host: CDF1 male mice
(§7) ^3 Treatment schedule: For AT 2433 A1 and B1, ip. days 1, 4
(§8) ^4 Tox: Toxic, i.e., <4/6 mice alive on day 5
(§9) ^5 MST: Median survived time in days
(§10) ^6 % T/C: (MSTTreated/MST-Control) × 100
(§11) ^7 Criteria: If % T/C >125, the test compound is considered to exhibi
(§12) significant antitumor activity at that dose.

[1] = tested on: Sarcina lutea (ATCC 9341); assay: in-vitro antibacterial activity, agar dilution (MIC); type: cell-based; conditions: Micrococcus luteus, ATCC9341, MHA, 48 hrs, pH 7.4, read-out: Minimum Inhibitory Concentration (MIC)
Method: as §1, §2

E. Coli SS 1431 = assay: as above; type: cell-based; conditions: Escherichia coli, MHA, 48 hrs, pH 7.4
Method: as §1, §2

[2] = in-vivo antitumor activity against transplanted mouse P-388 leukemia (NCI test); conditions: mouse, in vivo; every 3rd day for 3 injections, ip; read-out: maximum tolerated dose (no day 5 or earlier deaths due to toxicity)
Method: as §3, §4, §5, §6, §7, §8, §9, §10, §11, §12

[3] = 0.5 mg/kg/inj, ip, days 1, 4 and 7
[4] = 0.5 mg/kg/inj, ip, days 1, 4 and 7, CDF1 male mice
[5] = 1 mg/kg/inj, ip, days 1, 4 and 7
[6] = 1 mg/kg/inj, ip, days 1, 4 and 7, CDF1 male mice
[7] = 2 mg/kg/inj, ip, days 1, 4 and 7
[8] = 2 mg/kg/inj, ip, days 1, 4 and 7, CDF1 male mice
[9] = 4 mg/kg/inj, ip, days 1, 4 and 7
[10] = 4 mg/kg/inj, ip, days 1, 4 and 7, CDF1 male mice
[11] = 8 mg/kg/inj, ip, days 1, 4 and 7
[12] = 8 mg/kg/inj, ip, days 1, 4 and 7, CDF1 male mice
[13] = 16 mg/kg/inj, ip, days 1, 4 and 7
[14] = 16 mg/kg/inj, ip, days 1, 4 and 7, CDF1 male mice

| Structure (SMILES) | antibacterial activity against gram-positive bacteria (gram-positive bacteria) | MST (% T/C) (P-388 leukemia; [3]) [%] | MST (median survived time) (P-388 leukemia; [4]) [days] | Avg. wt. change, gm on day 5 (P-388 leukemia; [3]) [gm] | Survivors day 5 (P-388 leukemia; [3]) | MST (% T/C) (P-388 leukemia; [5]) [%] | MST (median survived time) (P-388 leukemia; [6]) [days] | Avg. wt. change, gm on day 5 (P-388 leukemia; [5]) [gm] | Survivors day 5 (P-388 leukemia; [5]) | MST (% T/C) (P-388 leukemia; [7]) [%] | MST (median survived time) (P-388 leukemia; [8]) [days] | Avg. wt. change, gm on day 5 (P-388 leukemia; [7]) [gm] | Survivors day 5 (P-388 leukemia; [7]) | MST (% T/C) (P-388 leukemia; [9]) [%] | MST (median survived time) (P-388 leukemia; [10]) [days] | Avg. wt. change, gm on day 5 (P-388 leukemia; [9]) [gm] | Survivors day 5 (P-388 leukemia; [9]) | MST (% T/C) (P-388 leukemia; [11]) [%] | MST (median survived time) (P-388 leukemia; [12]) [days] | MIC [1] [µg/mL] | other results |
| --- | --- | --- | --- | --- | --- | --- | --- | --- | --- | --- | --- | --- | --- | --- | --- | --- | --- | --- | --- | --- | --- |
| CNC1COC(OCC2OC(n3c4ccccc4c4c5c(c6c7ccccc7[nH]c6c43)C(=O)N(C)C5=O)C(O)C(O)C2OC)CC1O (stereo not drawn) [AT 2433 B1] | active | 111 | 10.0 | 3.0 | 5/5 | 117 | 10.5 | 3.0 | 5/5 | 122 | 11.0 | 0.0 | 6/6 | 133 | 12.0 | -0.6 | 6/6 | 133 | 12.0 | 0.25 (≈ 0.388 µM) | antibacterial activity against gram-negative bacteria (gram-negative bacteria): exhibit antibacterial activity; Avg. wt. change, gm on day 5 (P-388 leukemia; [11]): -0.3 gm; Survivors day 5 (P-388 leukemia; [11]): 6/6; MST (% T/C) (P-388 leukemia; [13]): 144%; MST (median survived time) (P-388 leukemia; [14]): 13.0 days; Avg. wt. change, gm on day 5 (P-388 leukemia; [13]): -0.7 gm; Survivors day 5 (P-388 leukemia; [13]): 6/6; in-vivo antitumor activity (P-388 leukemia): exhibited in-vivo antitumor activity; tumor growth inhibition (P-388 leukemia; highest dose tested, 16 mg/kg): inhibitory to tumor growth but less effective than AT 2433 A1; MIC (E. Coli SS 1431): 16 µg/mL (≈ 24.8 µM) |
| COC1C(COC2CC(O)C(N)CO2)OC(n2c3ccccc3c3c4c(c5c6ccccc6[nH]c5c32)C(=O)N(C)C4=O)C(O)C1O (stereo not drawn) [AT 2433 B2] | active | – | – | – | – | – | – | – | – | – | – | – | – | – | – | – | – | – | – | 4 (≈ 6.34 µM) | – |
| COC1C(COC2CC(O)C(N)CO2)OC(n2c3c(Cl)cccc3c3c4c(c5c6ccccc6[nH]c5c32)C(=O)N(C)C4=O)C(O)C1O (stereo not drawn) [AT 2433 A2] | active | – | – | – | – | – | – | – | – | – | – | – | – | – | – | – | – | – | – | 1 (≈ 1.5 µM) | – |
| CNC1COC(OCC2OC(n3c4c(Cl)cccc4c4c5c(c6c7ccccc7[nH]c6c43)C(=O)N(C)C5=O)C(O)C(O)C2OC)CC1O (stereo not drawn) [AT 2433 A1] | active | 150 | 13.5 | -0.2 | 6/6 | 150 | 13.5 | -0.7 | 6/6 | 172 | 15.5 | -2.2 | 6/6 | 156 | 14.0 | -2.3 | 5/6 | 194 | 17.5 | 0.25 (≈ 0.368 µM) | increase in life span over controls (P-388 leukemia; 2 mg/kg given every 3rd day for 3 injections): 72%; Avg. wt. change, gm on day 5 (P-388 leukemia; [11]): -4.1 gm; Survivors day 5 (P-388 leukemia; [11]): 4/6; MST (% T/C) (toxicity flag) (P-388 leukemia; [14]): Tox (Toxic, i.e., <4/6 mice alive on day 5); MST (toxicity flag) (P-388 leukemia; [14]): Tox (Toxic, i.e., <4/6 mice alive on day 5); Avg. wt. change, gm on day 5 (P-388 leukemia; [13]): -3.2 gm; Survivors day 5 (P-388 leukemia; [13]): 2/6; in-vivo antitumor activity (P-388 leukemia): exhibited in-vivo antitumor activity; MTD [2]: 2 mg/kg |
